ChEMBL document CHEMBL1629642, “In vitro efficacy of ST246 against smallpox and monkeypox” (Antimicrob Agents Chemother, 2009)
pEC50: −log10 of the molar value. Active and inactive are the calls of the source. The calls are words filed in the database; no cut-off is given here.

Legend:
Variola virus [1] = experiment: Antiviral activity against Variola virus NEP73-175 infected in african green monkey BSC-40 cells at 0.05 to 0.5 uM by IHC staining-based plaque reduction assay; format: functional, organism-based
Variola virus [2] = experiment: Antiviral activity against Variola virus SUD47-juba infected in african green monkey BSC-40 cells at 0.05 to 0.5 uM by IHC staining-based plaque reduction assay; format: functional, organism-based
Variola virus [3] = experiment: Antiviral activity against Variola virus BSH74-sol infected in african green monkey BSC-40 cells at 0.005 uM assessed as reduction in virus-induced cytopathic effect; format: functional, organism-based
Variola virus [4] = experiment: Antiviral activity against Variola virus SUD47-juba infected in african green monkey BSC-40 cells at 0.005 uM by IHC staining-based comet tail reduction assay; format: functional, organism-based
Variola virus [5] = experiment: Antiviral activity against Variola virus BRZ66-39 infected in african green monkey BSC-40 cells at 0.015 uM assessed as reduction in virus-induced cytopathic effect; format: functional, organism-based
Monkeypox virus [6] = experiment: Antiviral activity against Monkeypox virus V1979-I-005 infected in african green monkey BSC-40 cells at 0.015 uM by IHC staining-based comet tail reduction assay; format: functional, organism-based
Variola virus [7] = experiment: Antiviral activity against Variola virus SLN68-258 infected in african green monkey BSC-40 cells at 0.005 uM uM by IHC staining-based plaque reduction assay; format: functional, organism-based
Monkeypox virus [8] = experiment: Antiviral activity against Monkeypox virus 2003-USA-039 infected in african green monkey BSC-40 cells assessed as reduction in viral plaque formation at 0.015 uM uM by IHC staining-based plaque reduction assay; format: functional
Monkeypox virus [9] = experiment: Antiviral activity against Monkeypox virus V81-I-179 infected in african green monkey BSC-40 cells at 0.05 to 0.5 uM by IHC staining-based comet tail reduction assay; format: functional, organism-based
Monkeypox virus [10] = experiment: Antiviral activity against Monkeypox virus 2003-USA-039 infected in african green monkey BSC-40 cells at 0.015 uM by IHC staining-based comet tail reduction assay; format: functional, organism-based
Monkeypox virus [11] = experiment: Antiviral activity against Monkeypox virus V78-I-3945 infected in african green monkey BSC-40 cells at 0.05 to 0.5 uM by IHC staining-based comet tail reduction assay; format: functional, organism-based
Variola virus [12] = experiment: Antiviral activity against Variola virus SUD47-juba infected in african green monkey BSC-40 cells assessed as reduction in viral plaque formation at 0.015 uM uM by IHC staining-based plaque reduction assay; format: functional
Variola virus [13] = experiment: Antiviral activity against Variola virus infected in african green monkey vero cells assessed as reduction in virus-induced cytopathic effect; format: functional, organism-based
Variola virus [14] = experiment: Antiviral activity against Variola virus BRZ66-39 infected in african green monkey BSC-40 cells at 0.005 uM by IHC staining-based comet tail reduction assay; format: functional, organism-based
Monkeypox virus [15] = experiment: Antiviral activity against Monkeypox virus V81-I-179 infected in african green monkey BSC-40 cells at 0.05 to 0.5 uM by IHC staining-based plaque reduction assay; format: functional, organism-based
Monkeypox virus [16] = experiment: Antiviral activity against Monkeypox virus V77-I-823 infected in african green monkey BSC-40 cells at 0.005 uM by IHC staining-based comet tail reduction assay; format: functional, organism-based
Variola virus [17] = experiment: Antiviral activity against Variola virus SUD47-juba infected in african green monkey BSC-40 cells at 0.05 to 0.5 uM by IHC staining-based comet tail reduction assay; format: functional, organism-based
Variola virus [18] = experiment: Antiviral activity against Variola virus NEP73-175 infected in african green monkey BSC-40 cells at 0.005 uM assessed as reduction in virus-induced cytopathic effect; format: functional, organism-based
Variola virus [19] = experiment: Antiviral activity against Variola virus BRZ66-39 infected in african green monkey BSC-40 cells assessed as reduction in viral plaque formation at 0.015 uM uM by IHC staining-based plaque reduction assay; format: functional
Monkeypox virus [20] = experiment: Antiviral activity against Monkeypox virus V81-I-179 infected in african green monkey BSC-40 cells assessed as reduction in virus-induced cytopathic effect at 0.005 uM; format: functional, organism-based
Variola virus [21] = experiment: Antiviral activity against Variola virus SLN68-258 infected in african green monkey BSC-40 cells at 0.05 to 0.5 uM by IHC staining-based plaque reduction assay; format: functional, organism-based
Monkeypox virus [22] = experiment: Antiviral activity against Monkeypox virus V77-I-823 infected in african green monkey BSC-40 cells assessed as reduction in viral plaque formation at 0.015 uM uM by IHC staining-based plaque reduction assay; format: functional
Variola virus [23] = experiment: Antiviral activity against Variola virus SOM77-ali infected in african green monkey BSC-40 cells at 0.05 to 0.5 uM by IHC staining-based plaque reduction assay; format: functional, organism-based
Variola virus [24] = experiment: Antiviral activity against Variola virus BSH74-sol infected in african green monkey BSC-40 cells at 0.05 to 0.5 uM by IHC staining-based plaque reduction assay; format: functional, organism-based
Cowpox virus = experiment: Antiviral activity against Cowpox virus infected in african green monkey Vero cells assessed as reduction in virus-induced cytopathic effect; format: functional, organism-based
Variola virus [25] = experiment: Antiviral activity against Variola virus NEP73-175 infected in african green monkey BSC-40 cells at 0.005 uM uM by IHC staining-based plaque reduction assay; format: functional, organism-based
Variola virus [26] = experiment: Antiviral activity against Variola virus SOM77-ali infected in african green monkey BSC-40 cells at 0.05 to 0.5 uM by IHC staining-based comet tail reduction assay; format: functional, organism-based
Variola virus [27] = experiment: Antiviral activity against Variola virus SUD47-juba infected in african green monkey BSC-40 cells at 0.015 uM by IHC staining-based comet tail reduction assay; format: functional, organism-based
Monkeypox virus [28] = experiment: Antiviral activity against Monkeypox virus 2003-USA-039 infected in african green monkey BSC-40 cells at 0.005 uM uM by IHC staining-based plaque reduction assay; format: functional, organism-based
Monkeypox virus [29] = experiment: Antiviral activity against Monkeypox virus V81-I-179 infected in african green monkey BSC-40 cells assessed as reduction in virus-induced cytopathic effect; format: functional, organism-based; conditions: V81-I-179, BSC-40
Monkeypox virus [30] = experiment: Antiviral activity against Monkeypox virus V77-I-823 infected in african green monkey BSC-40 cells assessed as reduction in virus-induced cytopathic effect at 0.015 uM; format: functional, organism-based
Variola virus [31] = experiment: Antiviral activity against Variola virus SOM77-ali infected in african green monkey BSC-40 cells at 0.05 to 5 uM assessed as reduction in virus-induced cytopathic effect; format: functional, organism-based
Monkeypox virus [32] = experiment: Antiviral activity against Monkeypox virus V78-I-3945 infected in african green monkey BSC-40 cells assessed as reduction in virus-induced cytopathic effect; format: functional, organism-based; conditions: V78-I-3945, BSC-40
Camelpox virus = experiment: Antiviral activity against Camelpox virus infected in african green monkey Vero cells assessed as reduction in virus-induced cytopathic effect; format: functional, organism-based
Variola virus [33] = experiment: Antiviral activity against Variola virus SLN68-258 infected in african green monkey BSC-40 cells at 0.05 to 0.5 uM by IHC staining-based comet tail reduction assay; format: functional, organism-based
Variola virus [34] = experiment: microbe, parasite or virus in culture; conditions: NEP73-175, BSC-40
Variola virus [35] = experiment: Antiviral activity against Variola virus BSH74-sol infected in african green monkey BSC-40 cells at 0.005 uM uM by IHC staining-based plaque reduction assay; format: functional, organism-based
Monkeypox virus [36] = experiment: Antiviral activity against Monkeypox virus V81-I-179 infected in african green monkey BSC-40 cells assessed as reduction in virus-induced cytopathic effect at 0.015 uM; format: functional, organism-based

## O=C(NN1C(=O)[C@@H]2[C@@H]3C=C[C@@H]([C@H]4C[C@@H]34)[C@@H]2C1=O)c1ccc(C(F)(F)F)cc1 [TECOVIRIMAT]
Variola virus [1]
  Activity: Active
Variola virus [2]
  Activity: Active
Variola virus [3]
  Activity: inactive
Variola virus [4]
  Activity: inactive
Variola virus [5]
  Activity: Active
Monkeypox virus [6]
  Activity: Active
Variola virus [7]
  Activity: inactive
Monkeypox virus [8]
  inhibition (INH): 50%
Monkeypox virus [9]
  Activity: Active
Monkeypox virus [10]
  Activity: Active
Monkeypox virus [11]
  Activity: Active
Variola virus [12]
  inhibition (INH): 50%
Variola virus [13]
  Activity: Active
Variola virus [14]
  Activity: inactive
Monkeypox virus [15]
  Activity: Active
Monkeypox virus [16]
  Activity: inactive
Variola virus [17]
  Activity: Active
Variola virus [18]
  Activity: inactive
Variola virus [19]
  inhibition (INH): 50%
Monkeypox virus [20]
  Activity: inactive
Variola virus [21]
  Activity: Active
Monkeypox virus [22]
  inhibition (INH): 50%
Variola virus [23]
  Activity: Active
Variola virus [24]
  Activity: Active
Cowpox virus
  Activity: Active
Variola virus [25]
  Activity: inactive
Variola virus [26]
  Activity: Active
Variola virus [27]
  Activity: Active
Monkeypox virus [28]
  Activity: inactive
Monkeypox virus [29]
  pEC50: 7.49
Monkeypox virus [30]
  Activity: Active
Variola virus [31]
  Activity: Active
Monkeypox virus [32]
  pEC50: 7.64
Camelpox virus
  Activity: Active
Variola virus [33]
  Activity: Active
Variola virus [34]
  pEC50: 7.68
Variola virus [35]
  Activity: inactive
Monkeypox virus [36]
  Activity: Active
